Literature values in patent US20090263333A1, “Pharmaceutical compounds and compositions” (Cipla Limited, priority 2004, published 2009).

Conditions: dose comparison with racemic salbutamol

## CC(C)(C)NC[C@H](O)c1ccc(O)c(CO)c1 [Levosalbutamol, levosalbutamol]
  efficacy relative to racemic salbutamol: comparable efficacy at nearly one-fourth the dose of racemic salbutamol
